Test systems include HCT-116 colon; DU-145 prostate; M14 melanoma; MDA-N; SN12C renal; SF-295 CNS; NCI/ADR-RES ovarian; PC-3 prostate; SR leukemia; TK-10 renal; OVCAR-8 ovarian; HS 578T breast; SK-OV-3 ovarian; MOLT-4 leukemia; BT-549 breast; OVCAR-5 ovarian; HCT-15 colon; LOX IMVI melanoma.
Holding throughout (assay): NCI tumour cell line growth inhibition, 48 h

Each structure is given as a SMILES string.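 Five compound concentrations were applied to cells in 96-well plates for 48 hours; endpoints were derived by simple linear interpolation of the resulting dose-response curve. Definition used: TGI = concentration required for complete inhibition of growth.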

Take `N#CCc1nc(-c2cc3ccc(O)cc3oc2=O)cs1`: the TGI in the experiment with HCT-116 colon, in the experiment with DU-145 prostate, in the experiment on M14 melanoma, with MDA-N, with SN12C renal and with SF-295 CNS was more than 100 µM in each case. The TGI in the experiment with NCI/ADR-RES ovarian, in the experiment with PC-3 prostate, with SR leukemia, in the experiment with TK-10 renal, with OVCAR-8 ovarian and in the experiment on HS 578T breast was more than 100 µM in each case. Also, the TGI in the experiment with SK-OV-3 ovarian, in the experiment on MOLT-4 leukemia, in the experiment on BT-549 breast, in the experiment on OVCAR-5 ovarian, in the experiment on HCT-15 colon and with LOX IMVI melanoma was more than 100 µM each time.
As for `Oc1cc(F)cc2cccnc12`, the TGI in the experiment with HCT-116 colon is more than 20.9 µM; in the experiment on DU-145 prostate it was more than 100 µM; in the experiment on M14 melanoma, 22.1 µM; in the experiment with MDA-N it was more than 100 µM; in the experiment on SN12C renal, more than 94.3 µM; in the experiment on SF-295 CNS, more than 100 µM. Further, the TGI in the experiment with NCI/ADR-RES ovarian was 6.74 µM; with PC-3 prostate, more than 100 µM; in the experiment on SR leukemia, 2.86 µM; with TK-10 renal it was more than 100 µM; in the experiment on OVCAR-8 ovarian, more than 100 µM; with HS 578T breast it was more than 100 µM. Also, the TGI in the experiment on SK-OV-3 ovarian is more than 100 µM; in the experiment on MOLT-4 leukemia it was 1.97 µM; with BT-549 breast, 70.2 µM; in the experiment with OVCAR-5 ovarian, more than 100 µM; in the experiment on HCT-15 colon, more than 100 µM; with LOX IMVI melanoma it was 29.1 µM.
Turning to `CN(C)c1ccc(/C=C2\C[C@H]3[C@@H]4CC=C5C[C@@H](O)CC[C@]5(C)[C@H]4CC[C@]3(C)[C@H]2O)cc1`, the TGI with HCT-116 colon is 28.1 µM; with DU-145 prostate, more than 100 µM; in the experiment on M14 melanoma, 41.3 µM; in the experiment with MDA-N it was 56.9 µM; in the experiment with SN12C renal, 40 µM; in the experiment with SF-295 CNS, 44.8 µM. Also, the TGI in the experiment on NCI/ADR-RES ovarian was 43.7 µM; in the experiment with PC-3 prostate it was 25.8 µM; in the experiment with SR leukemia, more than 100 µM; in the experiment with TK-10 renal it was 33.7 µM; with OVCAR-8 ovarian it was 13.1 µM; in the experiment with HS 578T breast, 50.8 µM. In addition, the TGI with SK-OV-3 ovarian was 88.1 µM; in the experiment on MOLT-4 leukemia, more than 100 µM; with BT-549 breast, 43.3 µM; with OVCAR-5 ovarian, 36.2 µM; in the experiment on HCT-15 colon it was 39.7 µM; in the experiment on LOX IMVI melanoma, 27.1 µM.
With `COC(=O)C(Cc1ccccc1)NP(=O)(O)OCC1OC(n2ccc(N)nc2=O)C(O)C1O` (stereo not drawn), the TGI in the experiment on HCT-116 colon, with DU-145 prostate, in the experiment with M14 melanoma, in the experiment with MDA-N, in the experiment with SN12C renal and in the experiment on SF-295 CNS was more than 100 µM in each case. The TGI in the experiment with NCI/ADR-RES ovarian, with PC-3 prostate, in the experiment with SR leukemia, in the experiment on TK-10 renal, with OVCAR-8 ovarian and in the experiment on HS 578T breast was more than 100 µM each time. Besides, the TGI with SK-OV-3 ovarian, with MOLT-4 leukemia, with BT-549 breast, with OVCAR-5 ovarian, in the experiment on HCT-15 colon and with LOX IMVI melanoma was more than 100 µM in each case.
As to `Cc1cc(=O)[nH]c(S(=O)(=O)NC(=O)Nc2cccc(Cl)c2)n1`, the TGI in the experiment with HCT-116 colon, with DU-145 prostate, in the experiment with M14 melanoma, in the experiment with MDA-N, in the experiment on SN12C renal and with SF-295 CNS was more than 100 µM each time. Moreover, the TGI in the experiment on NCI/ADR-RES ovarian, with PC-3 prostate, in the experiment on SR leukemia, with TK-10 renal, with OVCAR-8 ovarian and in the experiment on HS 578T breast was more than 100 µM each time. For the same compound, the TGI with SK-OV-3 ovarian, in the experiment with MOLT-4 leukemia, in the experiment with BT-549 breast, with OVCAR-5 ovarian, in the experiment on HCT-15 colon and in the experiment with LOX IMVI melanoma was more than 100 µM each time.
As to `CNC(=O)OCC1=C(COC(=O)NC)CN(c2ccc(OC)cc2)C1`, the TGI in the experiment on HCT-116 colon, in the experiment on DU-145 prostate, in the experiment with M14 melanoma, in the experiment on MDA-N, in the experiment with SN12C renal and with SF-295 CNS was more than 100 µM throughout. The TGI with NCI/ADR-RES ovarian, in the experiment on PC-3 prostate, in the experiment on SR leukemia, in the experiment on TK-10 renal, in the experiment with OVCAR-8 ovarian and in the experiment with HS 578T breast was more than 100 µM throughout. The TGI in the experiment on SK-OV-3 ovarian, in the experiment on MOLT-4 leukemia, in the experiment on BT-549 breast, with OVCAR-5 ovarian, in the experiment on HCT-15 colon and in the experiment on LOX IMVI melanoma was more than 100 µM throughout.

The values are drawn from PubChem BioAssay (NCI).
